23 molecules from patent US4235904A, “4-Aryl-5-piperazinoalkyl-1,3-dioxol-2-ones, and compositions” (Instituto Luso Farmaco d'Italia S.p.A., priority 1978, dated 1980) can be followed below.

Data set [1] concerns plasmatic cholesterol. Briefly: Hypocholesterolemic activity: determination of plasmatic cholesterol in rats treated orally. The data set is classed as in vivo. As to conditions: Rattus norvegicus, po, 96 h, os, five treatments in 4 days, dose which reduces by 30% the content of plasmatic cholesterol, Table 1, read-out: Hypocholesterolemic activity, DE30 (rats). How it is done:
It has been evaluated orally in rats treated five times in 4 days (once daily during the first three days, twice daily on the fourth day) with the drugs under study. The animals, kept on an empty stomach, were killed on the fifth day, 18 hours after the last treatment. The following tests were carried out: The technique described by J. P. Blomhoff (Clin.Chim.Acta, 43,247, 1973) for the gas-chromatographic determination of total cholesterol was followed. 0,5 ml of the animal serum are hydrolysed at 50° C. for 1 hour with 5 ml of 2% alcoholic KOH. Cholesterol is extracted with 2% petroleum ether at 60°-80° C. and the gas-chromatographic analysis is carried out on the extract with cholesterol acetate as internal standard. The plasmatic cholesterol concentration of the treated animals is evaluated by comparing it with that of the controls. The calculated ED30 represents the dose which reduces by 30% the content of plasmatic cholesterol.

Data set [2] is described as follows: Antiulcer activity in the rat (immobilization, method of Rossi et al.). Format: in vivo. Particulars: po, rats, os, 30 minutes before 4 hours immobilization, dose which protects 30% of the animals from ulcers, Table 3, read-out: Antiulcer activity DE30 (rats). The protocol: (b) Antiulcer activity in the rat The method described by Rossi et al. (Comp.Rend.Soc.Biol., 150, 2124, 1956) was followed: 30 minutes after the oral treatment with the drugs under study, the animals, kept on an empty stomach for 48 hours, were immobilized for a period of 4 hours. At the end of this time, the presence of ulcers is checked after killing the animals by ether. The calculated ED30 represents the dose which protects 30% of the animals from ulcers.

A short description of data set [3]: Acute toxicity, DL50 (mice), ip. As to conditions: for LD50: mouse, in vivo.
The test system of data set [4] is plasmatic triglycerides. Briefly: Hypotriglyceremic activity: determination of plasmatic triglycerides in rats treated orally. The data set is classed as in vivo. Particulars: Rattus norvegicus, po, 96 h, os, five treatments in 4 days, dose which reduces by 30% the content of plasmatic triglycerides, Table 2, read-out: Hypotriglyceremic activity DE30 (rats). How it is done:
It has been evaluated orally in rats treated five times in 4 days (once daily during the first three days, twice daily on the fourth day) with the drugs under study. The animals, kept on an empty stomach, were killed on the fifth day, 18 hours after the last treatment. The following tests were carried out: The technique of […].,44, 267, 1966) is used; it consists in determining, by enzymatic route, the total glycerol made free by hydrolysis of the seric neutral fats. In particular, the "Biochemia Test Combination" (Boehringer Mannheim GMBH) was used. In this case, too, the seric concentration of triglycerides in the treated animals was compared with that in the controls. The calculated ED30 represents the dose which reduces by 30% the content of plasmatic triglycerides.

Counter-ions that a name gives are not always drawn.

For `Cl.Cl.O=c1oc(CCN2CCN(c3ccccc3)CC2)c(-c2ccc(F)cc2)o1` [Compound 1, 4-(4-fluorophenyl)-5-[2-(4-phenyl-1-piperazinyl)ethyl]-1,3-dioxol-2-one dihydrochloride], the ED30 in data set [1] amounted to 10 mg/kg; in data set [2], 10 mg/kg; in data set [4], 50 mg/kg. The median lethal dose (LD50) (usually the dose expected to kill half of the subjects tested) in data set [3] came out at 420 mg/kg.

Take `CN(CCc1ccccc1)CCc1oc(=O)oc1-c1ccc(F)cc1.Cl` [Compound 2, 4-(4-fluorophenyl)-5-[2-(N-methyl-N-2-phenylethylamino)ethyl]-1,3-dioxol-2-one hydrochloride]: in data set [2], the ED30 came out at 15 mg/kg. Further, the LD50 in data set [3] amounted to 175 mg/kg.

Take `Cl.Cl.O=c1oc(CCN2CCN(c3ccccn3)CC2)c(-c2ccc(F)cc2)o1` [Compound 3, 4-(4-fluorophenyl)-5-[2-(4-(2-pyridyl)-1-piperazinyl)ethyl]-1,3-dioxol-2-one dihydrochloride]: in data set [1], the ED30 worked out at 25 mg/kg. The same molecule yielded a 50% lethal dose (LD50) in data set [3] of 350 mg/kg.

`CN1CCN(CCc2oc(=O)oc2-c2ccc(F)cc2)CC1.Cl.Cl` [Compound 4, 4-(4-fluorophenyl)-5-[2-(4-methyl-1-piperazinyl)ethyl]-1,3-dioxol-2-one dihydrochloride]: in data set [2], the ED30 was 20 mg/kg. In data set [3], this molecule returned an LD50 of 300 mg/kg.

Consider `COc1ccccc1N1CCN(CCc2oc(=O)oc2-c2ccc(F)cc2)CC1.Cl.Cl` [Compound 5, 4-(4-fluorophenyl)-5-[2-(4-(2-methoxyphenyl)-1-piperazinyl)ethyl]-1,3-dioxol-2-one dihydrochloride], for which the ED30 in data set [2] is 30 mg/kg. The same molecule yielded an LD50 in data set [3] of 350 mg/kg.

With `Cl.Cl.O=c1oc(CCN2CCN(c3ccccc3)CC2)c(-c2ccccc2)o1` [Compound 6, 4-phenyl-5-[2-(4-phenyl-1-piperazinyl)ethyl]-1,3-dioxol-2-one dihydrochloride], the ED30 in data set [1] came to 20 mg/kg; in data set [2], 20 mg/kg; in data set [4], 30 mg/kg. This molecule registered a 50% lethal dose (LD50) in data set [3] of 500 mg/kg.

For `Cl.Cl.O=c1oc(CCN2CCN(c3ccccc3)CC2)c(-c2ccc(Cl)cc2)o1` [Compound 7, 4-(4-chlorophenyl)-5-[2-(4-phenyl-1-piperazinyl)ethyl]-1,3-dioxol-2-one dihydrochloride], the ED30 in data set [1] came to 6 mg/kg; in data set [2] it was 80 mg/kg; in data set [4] it was 30 mg/kg. Moreover, the LD50 in data set [3] worked out at 650 mg/kg.

On to `O=c1oc(CCN2CCOCC2)c(-c2ccc(F)cc2)o1` [Compound 8, 4-(4-fluorophenyl)-5-[2-(1-morpholinyl)ethyl]-1,3-dioxol-2-one hydrochloride], for which the ED30 in data set [2] was determined as 30 mg/kg. The molecule further showed an LD50 in data set [3] of over 1000 mg/kg.

Turning to `Cc1ccc(-c2oc(=O)oc2CCN2CCN(c3ccccc3)CC2)cc1.Cl` [Compound 9, 4-(4-tolyl)-5-[2-(4-phenyl-1-piperazinyl)ethyl]-1,3-dioxol-2-one hydrochloride], the results for the ED30 in data set [1], in data set [2] and in data set [4] were 15 mg/kg, 10 mg/kg and 100 mg/kg, respectively. For the same molecule, the “Acute toxicity DL50 (mice)” value in data set [3] (Table 1) and in data set [3] (Table 2) was over 1000 mg/kg in each case. In data set [3], this molecule had a median lethal dose (LD50) of over 1000 mg/kg.

Turning to `Cl.O=c1oc(CCN2CCN(c3cc(Cl)cc(Cl)c3)CC2)c(-c2ccc(F)cc2)o1` [Compound 10, 4-(4-fluorophenyl)-5-[2-(4-(3,5-dichlorophenyl)-1-piperazinyl)ethyl]-1,3-dioxol-2-one hydrochloride], the ED30 stood at 50 mg/kg in data set [2] and 100 mg/kg in data set [4]. Also, in data set [3] (Table 2), the “Acute toxicity DL50 (mice)” value is reported as over 1000 mg/kg. In data set [3], this molecule gave an LD50 of over 1000 mg/kg.

`CC1CN(CCc2oc(=O)oc2-c2ccc(F)cc2)CCN1c1ccc(Cl)cc1.Cl.Cl` (stereo not shown) [Compound 11, 4-(4-fluorophenyl)-5-[2-(4-(4-chlorophenyl)-3-methyl-1-piperazinyl)ethyl]-1,3-dioxol-2-one dihydrochloride]: the ED30 is 100 mg/kg in data set [2] and 30 mg/kg in data set [4]. This molecule also showed an LD50 in data set [3] of 1000 mg/kg.

For `Cl.O=c1oc(CCN2CCN(c3cc(Cl)ccc3Cl)CC2)c(-c2ccc(F)cc2)o1` [Compound 12, 4-(4-fluorophenyl)-5-[2-(4-(2,5-dichlorophenyl)-1-piperazinyl)ethyl]-1,3-dioxol-2-one hydrochloride], the “Acute toxicity DL50 (mice)” value in data set [3] (Table 2) turned out to be 1000 mg/kg. For the same molecule, the ED30 in data set [4] came out at 30 mg/kg.

In the case of `Cl.O=c1oc(CCN2CCN(c3ccc(Cl)c(Cl)c3)CC2)c(-c2ccc(F)cc2)o1` [Compound 13, 4-(4-fluorophenyl)-5-[2-(4-(3,4-dichlorophenyl)-1-piperazinyl)ethyl]-1,3-dioxol-2-one hydrochloride], the figures for the ED30 in data set [2] and in data set [4] were 100 mg/kg and 25 mg/kg, respectively. For the same molecule, the “Acute toxicity DL50 (mice)” value in data set [3] (Table 2) and in data set [3] (Table 3) was 600 mg/kg each time.

`O=c1oc(CCN2CCN(c3ccccc3)CC2)c(-c2ccc3ccccc3c2)o1` [Compound 14, 4-(2-naphtyl)-5-[2-(4-phenyl-1-piperazinyl)ethyl]-1,3-dioxol-2-one hydrochloride]: the ED30 in data set [1] was determined as 20 mg/kg; in data set [4], 100 mg/kg. Also, the LD50 in data set [3] amounted to 830 mg/kg.

`COc1ccc(-c2oc(=O)oc2CCN2CCN(c3ccccc3)CC2)cc1.Cl.Cl` [Compound 15, 4-(4-methoxyphenyl)-5-[2-(4-phenyl-1-piperazinyl)ethyl]-1,3-dioxol-2-one dihydrochloride] had an LD50 in data set [3] of over 1000 mg/kg. Besides, in data set [4], the ED30 was determined as 20 mg/kg.

In data set [3], `CSc1ccc(-c2oc(=O)oc2CCN2CCN(c3ccccc3)CC2)cc1.Cl.Cl` [Compound 16, 4-(4-methylthiophenyl)-5-[2-(4-phenyl-1-piperazinyl)ethyl]-1,3-dioxol-2-one dihydrochloride] registered an LD50 of over 1000 mg/kg. In addition, the ED30 in data set [4] stood at 100 mg/kg.

As to `Cl.O=c1oc(CCN2CCC3(CCCCC3)CC2)c(-c2ccc(F)cc2)o1` [Compound 17, 4-(4-fluorophenyl)-5-[2-(3-azaspiro[5,5]undecan-3-yl)ethyl]-1,3-dioxol-2-one hydrochloride], the LD50 in data set [3] was determined as 190 mg/kg. Further, in data set [4], the ED30 worked out at 30 mg/kg.

With `Cl.Cl.O=c1oc(CCN2CCN(C(c3ccccc3)c3ccc(Cl)cc3)CC2)c(-c2ccc(Cl)cc2)o1` (stereo not shown) [Compound 18, 4-(4-chlorophenyl)-5-[2-(4-(4-chlorobenzhydryl)-1-piperazinyl)ethyl]-1,3-dioxol-2-one dihydrochloride], the 50% lethal dose (LD50) in data set [3] is over 1000 mg/kg. The ED30 in data set [4] turned out to be 20 mg/kg.

Take `O=C(O)/C=C\C(=O)O.O=c1oc(CCN2CCN(c3ncccn3)CC2)c(-c2ccc(Cl)cc2)o1` [Compound 19, 4-(4-chlorophenyl)-5-[2-(4-(2-pyrimidinyl)-1-piperazinyl)ethyl]-1,3-dioxol-2-one maleate]: the ED30 in data set [1] came to 30 mg/kg. In data set [3], this molecule returned an LD50 of 375 mg/kg.

On to `Cl.O=c1oc(CCCN2CCN(c3ccccc3)CC2)c(-c2ccc(F)cc2)o1` [Compound 20, 4-(4-fluorophenyl)-5-[3-(4-phenyl-1-piperazinyl)propyl]-1,3-dioxol-2-one hydrochloride], for which the ED30 in data set [1] stood at 30 mg/kg; in data set [4] it was 15 mg/kg. For the same molecule, the “Acute toxicity DL50 (mice)” value in data set [3] (Table 2) is over 500 mg/kg. Further, the LD50 in data set [3] is over 500 mg/kg.

`O=c1oc(CCN2CCN(c3ccc(Cl)cc3)CC2)c(-c2ccc(Cl)cc2)o1` [Compound 21, 4-(4-chlorophenyl)-5-[2-(4-chlorophenyl)-1-piperazinyl)ethyl]-1,3-dioxol-2-one hydrochloride] returned an LD50 in data set [3] of over 1000 mg/kg. Further, in data set [4], the ED30 came out at 100 mg/kg.

In data set [3], `O=c1oc(CCN2CCC(c3ccccc3)CC2)c(-c2ccc(Cl)cc2)o1` [Compound 22, 4-(4-chlorophenyl)-5-[2-(4-phenyl)-1-piperidinyl)ethyl]-1,3-dioxol-2-one hydrochloride] returned an LD50 of 750 mg/kg. In addition, the ED30 in data set [4] was found to be 50 mg/kg.

For `Cl.O=c1oc(CCN2CCN(C(c3ccccc3)c3ccccc3)CC2)c(-c2ccc(Cl)cc2)o1` [Compound 23, 4-(4-chlorophenyl)-5-[2-(4-benzhydryl-1-piperazinyl)ethyl]-1,3-dioxol-2-one hydrochloride], the LD50 in data set [3] is over 1000 mg/kg. The ED30 in data set [4] was 100 mg/kg.
